From paper PMC12649549, “Sequence Permutation Generated Lysine and Tryptophan-Rich Antimicrobial Peptides with Enhanced Therapeutic Index” (Antibiotics, 2025)
Read-outs that look alike come from different tables or passages of the source.

Assays:
S. aureus ATCC 6538 = test system: S. aureus ATCC 6538
Protocol: (§1) The antibacterial and salt-resistant activity of the peptides was tested using Escherichia coli (ATCC 25922), Pseudomonas aeruginosa Migula (ATCC 27853), Acinetobacter sp. (BCRC number 14B0091, BCRC number 14B0097, and BCRC number 14B0100), and Staphylococcus aureus sp. strains (ATCC 25923, ATCC 33591, ATCC 33592, ATCC 33593, and ATCC 6538). All bacteria were obtained from the Food Industry Research and Development Institute (Hsinchu, Taiwan) and cultured in sterilized Müller-Hinton (MH) broth at 37 °C and 200 rpm for 8 h. The inoculum concentrations were determined by measuring the optical density at 600 nm (OD 600 = 1, approximately 10^8 CFU/mL) using an Ultrospec 2100 pro UV-Visible spectrophotometer (Biochrom Ltd., Cambridge, UK) after 8 h of culture.
(§2) The antibacterial activities of the peptides in Müller-Hinton (MH) broth and modified LYM broth were determined using the standard broth microdilution method as per Clinical and Laboratory Standards Institute (CLSI) guidelines. The LYM broth was prepared with specific components and adjusted to different conditions, including varying concentrations of NaCl and MgCl2, and different pH levels. To prepare the LYM broth, 5.4 mM KCl, 5.6 mM Na2HPO4, 0.5 mM MgSO4, and 1.0 mM sodium citrate were added. Additionally, 0.4 mg of ZnCl2, 2.0 mg of FeCl3·6H2O, 0.1 mg of CuSO4·5H2O, 0.1 mg of MnSO4·H2O, 0.1 mg of Na2B4O7∙10H2O, 700 mg of amino acid mixtures without tryptophan (Takara Bio Inc., San Jose, CA, USA), and 20 mg of L-tryptophan were added per liter of medium. The pH was adjusted to 7.4, and a vitamin mixture (100X, Sigma) and glucose concentration of 2% were added. For different conditions of LYM broth, NaCl concentrations of 300, 200, 150, and 50 mM, MgCl2 concentrations of 2.5, 1.5, and 0.5 mM, and pH levels of 6.5, 5.5, and 4.5 were adjusted. Bacterial strains were incubated in MH broth overnight, regrown, and diluted to a final concentration of 5 × 10^5 CFU/mL. Peptides were added to each well at final concentrations of 50, 25, 12.5, 6.25, 3.13, 1.56, and 0.78 µg/mL, and 99 µL of diluted microbes was loaded into each well of a polypropylene 96-well plate. […] The Morpheus HeatMap software (https://software.broadinstitute.org/morpheus/) was used to display MIC values on a color scale. All experiments were independently repeated three times.

S. aureus ATCC 25923 = test system: S. aureus ATCC 25923
Protocol: as §1, §2

[1] = test system: A. baumannii 14B0097 (Acinetobacter sp., BCRC number 14B0097)
Protocol: as §1, §2

Gram-positive bacteria = test: Geometric mean MIC and therapeutic index, Gram-positive bacteria; assay type: cell-based; settings: Gram-positive bacteria
Protocol: In this study, we aimed to investigate the potential of W5K series peptides for therapeutic use. To evaluate their efficacy for antibacterial therapy, we used the Therapeutic Index (TI) as a measure of their cell selectivity. The TI was calculated as the ratio of the concentration causing 10% hemolysis of human red blood cells (HC10) to the geometric mean minimum inhibitory concentration (GM) of the peptides against both Gram-negative and Gram-positive bacteria. This parameter was used to quantitatively assess the balance between antibacterial potency and cytotoxicity among the W5K derivatives.
as §2

S. aureus ATCC 33592 = test system: S. aureus ATCC 33592
Protocol: as §1
as §2, with “For different conditions of LYM broth, NaCl concentrations of 300, 200, 150, and 50 mM, MgCl2 concentrations of 2.5, 1.5, and 0.5 mM, and pH levels of 6.5, 5.5, and 4.5 were adjusted.” left out

[2] = LYM broth, 0 mM NaCl, 16 h, 37 °C
[3] = LYM broth, 50 mM NaCl, 16 h, 37 °C
[4] = LYM broth, 100 mM NaCl, 16 h, 37 °C
[5] = LYM broth, 200 mM (NaCl), 16 h, 37 °C
[6] = LYM broth, 300 mM (NaCl), 16 h, 37 °C
[7] = MH broth, 5 × 10^5 CFU/mL, 16 h, 37 °C, repeated three times

Ac-KKKWRKWLKWLAK-NH2 [Peptide W5K12]
4.7 µg/mL: GM G+ (geometric mean of the MIC values) (Gram-positive bacteria; MH broth, MIC >50 µg/mL counted as 100 µg/mL)
8.8: Therapeutic Index (TI) G+ (Gram-positive bacteria; HC10/GM)
3.13 µg/mL: MIC (S. aureus ATCC 6538; [4]) | MIC (S. aureus ATCC 6538; LYM broth, pH 4.5) | MIC (S. aureus ATCC 6538; [7]) | MIC (S. aureus ATCC 25923; LYM broth, 1.5 mM MgCl2) | MIC (S. aureus ATCC 25923; LYM broth, 2.5 mM MgCl2) | MIC (S. aureus ATCC 25923; [3]) | MIC (S. aureus ATCC 25923; [4]) | MIC (S. aureus ATCC 25923; LYM broth, pH 4.5) | MIC (S. aureus ATCC 25923; LYM broth, pH 5.5) | MIC (S. aureus ATCC 25923; [7]) | MIC ([1]; LYM broth, 2.5 mM MgCl2) | MIC [1, 6] | MIC ([1]; LYM broth, pH 4.5) | MIC ([1]; LYM broth, pH 5.5) | MIC (S. aureus ATCC 33592; [2]) | MIC (S. aureus ATCC 33592; LYM broth, 0.5 mM MgCl2) | MIC (S. aureus ATCC 33592; LYM broth, 1.5 mM MgCl2) | MIC (S. aureus ATCC 33592; LYM broth, 2.5 mM MgCl2) | MIC (S. aureus ATCC 33592; [3]) | MIC (S. aureus ATCC 33592; [4]) | MIC (S. aureus ATCC 33592; LYM broth, pH 4.5) | MIC (S. aureus ATCC 33592; LYM broth, pH 5.5)
6.25 µg/mL: MIC (S. aureus ATCC 6538; [5]) | MIC (S. aureus ATCC 25923; [5]) | MIC (S. aureus ATCC 33592; [5]) | MIC (S. aureus ATCC 33592; [7])
12.5 µg/mL: MIC (S. aureus ATCC 6538; [6]) | MIC (S. aureus ATCC 25923; [6]) | MIC (S. aureus ATCC 33592; [6])
1.56 µg/mL: MIC (S. aureus ATCC 6538; [2]) | MIC (S. aureus ATCC 6538; LYM broth, 0.5 mM MgCl2) | MIC (S. aureus ATCC 6538; LYM broth, 1.5 mM MgCl2) | MIC (S. aureus ATCC 6538; LYM broth, 2.5 mM MgCl2) | MIC (S. aureus ATCC 6538; [3]) | MIC (S. aureus ATCC 6538; LYM broth, pH 5.5) | MIC (S. aureus ATCC 6538; LYM broth, pH 6.5) | MIC (S. aureus ATCC 25923; [2]) | MIC (S. aureus ATCC 25923; LYM broth, 0.5 mM MgCl2) | MIC (S. aureus ATCC 25923; LYM broth, pH 6.5) | MIC [1, 2] | MIC ([1]; LYM broth, 0.5 mM MgCl2) | MIC ([1]; LYM broth, 1.5 mM MgCl2) | MIC [1, 3] | MIC [1, 4] | MIC [1, 5] | MIC ([1]; LYM broth, pH 6.5) | MIC [1, 7] | MIC (S. aureus ATCC 33592; LYM broth, pH 6.5)
